In patent publication US20220057383A1, “USE OF BIOMARKERS TO EVALUATE THE EFFICACY OF A COMPOSITION IN REDUCING THE EFFECTS OF CANCER THERAPEUTICS ON SKIN” (Johnson & Johnson Consumer Inc., priority 2019, published 2022):
Where two headings read alike, the source gives them in different places.

Experiments:
[1] = tested on: Reconstructed Human Epidermis (RHE) tissues
[2] = tested on: RHE keratinocytes; assay: Transcriptomic analysis (gene expression profiling) of RHE keratinocytes treated with afatinib; type: cell-based, human; conditions: 100 nM afatinib; for number of genes down-regulated compared to control / number of genes up-regulated compared to control: cut off 50%
[3] = human, in vivo; cited from earlier work
[4] = 100 nM afatinib vs control, cut off 1.2-fold, overall

Afatinib
FOXO3 phosphorylation ([1]; 100 nM afatinib): decreased
cellular senescence pathway, enrichment based on change of protein phosphorylation status ([1]; 100 nM afatinib): significant enrichment
number of phosphoproteins with changed phosphorylation status ([1]; 100 nM afatinib vs control, cut off 1.2-fold change (more than 20%), all time points): 62
number of proteins with a significant decrease of phosphorylation status [1, 4]: 18
number of proteins with a significant increase of phosphorylation status [1, 4]: 44
number of proteins showing decreased phosphorylation compared to control ([1]; 100 nM afatinib, 20 min): 3
number of proteins showing increased phosphorylation compared to control ([1]; 100 nM afatinib, 20 min): 6
PI3K-AKT pathway, Set Enrichment Analysis of phosphorylation status ([1]; 100 nM afatinib, 24 h): significant enrichment
number of proteins showing decreased phosphorylation compared to control ([1]; 100 nM afatinib, 24 h): 23
number of proteins showing increased phosphorylation compared to control ([1]; 100 nM afatinib, 24 h): 18
phosphorylation of MEK1 (Phospho-Ser217) ([1]; 100 nM afatinib, 24 h): not impacted
phosphorylation of MEK1 (Phospho-Ser221) ([1]; 100 nM afatinib, 24 h): not impacted
phosphorylation of Raf1 (Phospho-Ser338) ([1]; 100 nM afatinib, 24 h): decreased
phosphorylation of Raf1 (Phospho-Tyr341) ([1]; 100 nM afatinib, 24 h): not impacted
phosphorylation of eIF4E (Phospho-Ser209) ([1]; 100 nM afatinib, 24 h): decreased
number of proteins showing decreased phosphorylation compared to control ([1]; 100 nM afatinib, 72 h): 6
number of proteins showing increased phosphorylation compared to control ([1]; 100 nM afatinib, 72 h): 6
expression of genes related to inflammation (Th1 response) [2]: did not show any increase
genes involved in innate immunity (S100 family, SPRR2B, DEFB1) [2]: negatively regulated
number of genes down-regulated compared to control ([2]; 6 h): 170
number of genes up-regulated compared to control ([2]; 6 h): 201
expression of KRT2, KRT9, KRT13, KRT15 and Late Cornified Envelop genes (LCE2A, LCE1B, LCE2B, LCE1C, LCE2D) ([2]; 24 h): increase
expression of metallothionein panel (MT1E, MT1L, MT1H L1, MT1X, MT1B, MT1A) ([2]; 24 h): decreased
number of genes down-regulated compared to control ([2]; 24 h): 335
number of genes up-regulated compared to control ([2]; 24 h): 281
expression of CYP (CYP4B1, CYP3A7, CYP3A5, CYP2J2, CYP4A11, CYP1A1, CYP4F22) ([2]; 24 h and 72 h): decreased
expression of CYP (Inc-CYP24A1-1, CYP27A1, CYP4F12) ([2]; 24 h and 72 h): increased
expression of SIRT4 ([2]; 72 h): increased
expression of antioxidant enzymes PRDX2 and PRDX3 ([2]; 72 h): decreased
expression of metallothionein panel (MT1E, MT1L, MT1H L1, MT1X, MT1B, MT1A) ([2]; 72 h): increased
genes related to IL4 and IL13 signaling (Th2 response) ([2]; cluster C2): over representation
genes related to the PI3K/AKT pathway ([2]; cluster C6): upregulation
number of dysregulated genes ([2]; cut-off 50% fold-change, different time points): 2,182
inflammasome response via TLR, NLR and IL1 families ([2]; protein phosphorylation assay and gene expression array): decreased
appearance of granulomas versus other EGFRi [3]: more frequent appearance of granulomas
